Organism: Rattus norvegicus
Experiment: DrugMatrix - Regimen: Daily Repeat
Type: toxicity, organism-based, Sprague-Dawley
Set-up: regimen Daily Repeat, gender Male, age 6-8 weeks
Conditions: in vivo, iv, vehicle 100 % SALINE; for ABSOLUTE BASOPHIL / ABSOLUTE EOSINOPHIL / ABSOLUTE LYMPHOCYTE / ABSOLUTE MONOCYTE / ABSOLUTE SEGMENTED NEUTROPHIL / BASOPHIL / EOSINOPHIL / ERYTHROCYTE COUNT / HEMATOCRIT / HEMOGLOBIN / LEUKOCYTE COUNT / LYMPHOCYTE / MEAN CORPUSCULAR HEMOGLOBIN / MEAN CORPUSCULAR HEMOGLOBIN CONCENTRATION / MEAN CORPUSCULAR VOLUME / MONOCYTE / NEUTROPHIL / NUCLEATED RED BLOOD CELLS / PLATELET COUNT: tissue Blood; for ALANINE AMINOTRANSFERASE / ALBUMIN / ALKALINE PHOSPHATASE / ASPARTATE AMINOTRANSFERASE / BLOOD UREA NITROGEN / CARBON DIOXIDE / CHLORIDE / CHOLESTEROL / CREATINE PHOSPHOKINASE / CREATININE / GLUCOSE / LACTATE DEHYDROGENASE / LIPASE / PHOSPHORUS / POTASSIUM / SODIUM / TOTAL BILIRUBIN / TOTAL PROTEIN / URIC ACID: tissue Plasma
[1] = 0 mg/kg, 72 h, dose level Control, time 3 day
[2] = 0 mg/kg, 120 h, dose level Control, time 5 day
[3] = 200 mg/kg, 72 h, dose level Low, time 3 day

CC1(C)S[C@@H]2[C@H](NC(=O)[C@H](NC(=O)N3CCNC3=O)c3ccccc3)C(=O)N2[C@H]1C(=O)O [AZLOCILLIN]
ABSOLUTE BASOPHIL [1]: 0 CELLS/uL | ABSOLUTE EOSINOPHIL [1]: 15.33 CELLS/uL | ABSOLUTE LYMPHOCYTE [1]: 9513.5 CELLS/uL | ABSOLUTE MONOCYTE [1]: 94.67 CELLS/uL | ABSOLUTE SEGMENTED NEUTROPHIL [1]: 709.83 CELLS/uL | BASOPHIL [1]: 0% | EOSINOPHIL [1]: 0.17% | ERYTHROCYTE COUNT [1]: 5.63 x10E6/uL | HEMATOCRIT [1]: 34.63% | HEMOGLOBIN [1]: 13.6 G/DL | LEUKOCYTE COUNT [1]: 10.33 x10E3/uL | LYMPHOCYTE [1]: 92% | MEAN CORPUSCULAR HEMOGLOBIN [1]: 24.17 pg | MEAN CORPUSCULAR HEMOGLOBIN CONCENTRATION [1]: 39.28 G/DL | MEAN CORPUSCULAR VOLUME [1]: 61.57 fL | MONOCYTE [1]: 0.83% | NEUTROPHIL [1]: 7% | NUCLEATED RED BLOOD CELLS [1]: 0 /100WBC | PLATELET COUNT [1]: 903.17 x10E3/uL | ALANINE AMINOTRANSFERASE [1]: 49.33 u/L | ALBUMIN [1]: 4.27 G/DL | ALKALINE PHOSPHATASE [1]: 400.83 u/L | ASPARTATE AMINOTRANSFERASE [1]: 77.5 u/L | BLOOD UREA NITROGEN [1]: 16.33 mg/dL | CARBON DIOXIDE [1]: 29.33 mmol/L | CHLORIDE [1]: 99.67 MEQ/L | CHOLESTEROL [1]: 66.67 mg/dL | CREATINE PHOSPHOKINASE [1]: 275.33 u/L | CREATININE [1]: 0.18 mg/dL | GLUCOSE [1]: 163.83 mg/dL | LACTATE DEHYDROGENASE [1]: 125.33 u/L | LIPASE [1]: 10 u/L | PHOSPHORUS [1]: 12.12 mg/dL | POTASSIUM [1]: 6.68 MEQ/L | SODIUM [1]: 144.02 MEQ/L | TOTAL BILIRUBIN [1]: 0.18 mg/dL | TOTAL PROTEIN [1]: 5.87 G/DL | URIC ACID [1]: 1.63 mg/dL | ABSOLUTE BASOPHIL [2]: 0 CELLS/uL | ABSOLUTE EOSINOPHIL [2]: 48.83 CELLS/uL | ABSOLUTE LYMPHOCYTE [2]: 14562 CELLS/uL | ABSOLUTE MONOCYTE [2]: 138.67 CELLS/uL | ABSOLUTE SEGMENTED NEUTROPHIL [2]: 1733.83 CELLS/uL | BASOPHIL [2]: 0% | EOSINOPHIL [2]: 0.33% | ERYTHROCYTE COUNT [2]: 5.89 x10E6/uL | HEMATOCRIT [2]: 36.7% | HEMOGLOBIN [2]: 14.42 G/DL | LEUKOCYTE COUNT [2]: 16.48 x10E3/uL | LYMPHOCYTE [2]: 88.83% | MEAN CORPUSCULAR HEMOGLOBIN [2]: 24.52 pg | MEAN CORPUSCULAR HEMOGLOBIN CONCENTRATION [2]: 39.3 G/DL | MEAN CORPUSCULAR VOLUME [2]: 62.37 fL | MONOCYTE [2]: 0.67% | NEUTROPHIL [2]: 10.17% | NUCLEATED RED BLOOD CELLS [2]: 0 /100WBC | PLATELET COUNT [2]: 1076.5 x10E3/uL | ALANINE AMINOTRANSFERASE [2]: 44.67 u/L | ALBUMIN [2]: 4.23 G/DL | ALKALINE PHOSPHATASE [2]: 357.33 u/L | ASPARTATE AMINOTRANSFERASE [2]: 84.83 u/L | BLOOD UREA NITROGEN [2]: 15.5 mg/dL | CARBON DIOXIDE [2]: 27 mmol/L | CHLORIDE [2]: 99.5 MEQ/L | CHOLESTEROL [2]: 63.67 mg/dL | CREATINE PHOSPHOKINASE [2]: 331.33 u/L | CREATININE [2]: 0.18 mg/dL | GLUCOSE [2]: 167.33 mg/dL | LACTATE DEHYDROGENASE [2]: 320.17 u/L | LIPASE [2]: 9.17 u/L | PHOSPHORUS [2]: 12.05 mg/dL | POTASSIUM [2]: 6.54 MEQ/L | SODIUM [2]: 143.02 MEQ/L | TOTAL BILIRUBIN [2]: 0.2 mg/dL | TOTAL PROTEIN [2]: 6.23 G/DL | URIC ACID [2]: 2.07 mg/dL | ABSOLUTE BASOPHIL [3]: 0 CELLS/uL | ABSOLUTE EOSINOPHIL [3]: 0 CELLS/uL | ABSOLUTE LYMPHOCYTE [3]: 12492.33 CELLS/uL | ABSOLUTE MONOCYTE [3]: 142.67 CELLS/uL | ABSOLUTE SEGMENTED NEUTROPHIL [3]: 1631.67 CELLS/uL | BASOPHIL [3]: 0% | EOSINOPHIL [3]: 0% | ERYTHROCYTE COUNT [3]: 5.71 x10E6/uL | HEMATOCRIT [3]: 37.53% | HEMOGLOBIN [3]: 14.67 G/DL | LEUKOCYTE COUNT [3]: 14.27 x10E3/uL | LYMPHOCYTE [3]: 87.67% | MEAN CORPUSCULAR HEMOGLOBIN [3]: 25.73 pg | MEAN CORPUSCULAR HEMOGLOBIN CONCENTRATION [3]: 39.1 G/DL | MEAN CORPUSCULAR VOLUME [3]: 65.8 fL | MONOCYTE [3]: 1% | NEUTROPHIL [3]: 11.33% | NUCLEATED RED BLOOD CELLS [3]: 0 /100WBC | PLATELET COUNT [3]: 1015.67 x10E3/uL | ALANINE AMINOTRANSFERASE [3]: 70.67 u/L | ALBUMIN [3]: 4.47 G/DL | ALKALINE PHOSPHATASE [3]: 482 u/L | ASPARTATE AMINOTRANSFERASE [3]: 112.67 u/L | BLOOD UREA NITROGEN [3]: 16.67 mg/dL | CARBON DIOXIDE [3]: 27.33 mmol/L | CHLORIDE [3]: 102.33 MEQ/L | CHOLESTEROL [3]: 82.67 mg/dL | CREATINE PHOSPHOKINASE [3]: 554 u/L | CREATININE [3]: 0.22 mg/dL | GLUCOSE [3]: 148 mg/dL | LACTATE DEHYDROGENASE [3]: 194.33 u/L | LIPASE [3]: 10 u/L | PHOSPHORUS [3]: 11.97 mg/dL | POTASSIUM [3]: 7.02 MEQ/L | SODIUM [3]: 145.3 MEQ/L | TOTAL BILIRUBIN [3]: 0.23 mg/dL | TOTAL PROTEIN [3]: 5.97 G/DL | URIC ACID [3]: 1.67 mg/dL

Source: ChEMBL document CHEMBL3885881, “DrugMatrix”
